Data taken from patent US10202334B2, “Pendant amines and derivatives as inhibitors of leukotriene A4 hydrolase” (Celtaxsys, Inc., priority 2016, dated 2019).
Read-outs that look alike come from different tables or passages of the source.

How the values were obtained:
[1] = molecular target: T1, LTA4 hydrolase peptidase activity (Homo sapiens, UniProt P09960); assay: Peptidase assay (hydrolysis of L-alanine-p-nitroanilide); assay type: biochemical
T1 sequence (P09960 1-611): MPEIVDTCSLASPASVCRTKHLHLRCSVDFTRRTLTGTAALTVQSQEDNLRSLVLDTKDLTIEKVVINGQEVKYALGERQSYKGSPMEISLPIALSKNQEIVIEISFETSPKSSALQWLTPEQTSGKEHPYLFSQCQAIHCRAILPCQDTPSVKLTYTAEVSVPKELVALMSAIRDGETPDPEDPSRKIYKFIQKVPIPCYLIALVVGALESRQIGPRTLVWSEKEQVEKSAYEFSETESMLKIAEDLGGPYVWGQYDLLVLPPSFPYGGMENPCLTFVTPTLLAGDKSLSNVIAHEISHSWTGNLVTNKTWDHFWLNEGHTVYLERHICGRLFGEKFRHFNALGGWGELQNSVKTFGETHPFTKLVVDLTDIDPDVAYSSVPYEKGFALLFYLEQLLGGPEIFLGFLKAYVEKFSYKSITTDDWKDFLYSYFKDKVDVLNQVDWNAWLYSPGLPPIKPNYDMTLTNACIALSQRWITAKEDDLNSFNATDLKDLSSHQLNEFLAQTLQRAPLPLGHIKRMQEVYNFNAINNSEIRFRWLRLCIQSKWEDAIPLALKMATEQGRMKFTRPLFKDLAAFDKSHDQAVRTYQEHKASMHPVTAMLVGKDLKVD
Method: Inhibition of peptidase activity was measured for the compounds of the invention by using methods similar to those described in Kull, F. et al., The Journal of Biological Chemistry 1999, 274 (49): 34683-34690.
In brief, the enzyme (29 nM) was incubated with L-alanine-p-nitroanilide (1 mM) in 50 mM HEPES (pH 7.5), 100 mM KCL, 1% DMSO in the absence or presence of a compound of the invention for 1 hour at ambient temperature. Reaction was terminated by addition of acetic acid (1%). Formation of colored nitro-aniline was measured by the increase in absorbance at 405 nm in a Victor 2 plate reader (Wallac). Spontaneous hydrolysis of the substrate was corrected for by subtracting the absorbance of control incubations without enzyme.

[2] = tested on: production of LTB4 in whole blood; assay: Human whole blood assay (LTB4 release upon calcium ionophore, ELISA); assay type: cell-based
Method: Compounds of the invention were tested for their ability as inhibitors of LTA4 hydrolase in a whole blood assay using human, mouse, rat or dog whole blood in a manner similar to that described in Penning, T. D. et al., J. Med. Chem. (2000), 43(4): 721-735. In this assay, compounds were tested for their ability to inhibit LTB4 release upon stimulation with calcium ionophore. The LTB4 levels in supernatants were measured by ELISA.

[3] = molecular target: T2, recombinant human LTA4 hydrolase (Homo sapiens, UniProt P09960); assay: LTA4 hydrolase homogeneous time resolved fluorescence (HTRF) assay; assay type: biochemical
T2 sequence (P09960 1-611): T1 sequence (P09960 1-611)
Method: Compounds of the invention were tested in the LTA4 hydrolase homogeneous time resolved fluorescence (HTRF) assay to determine their ability to inhibit the hydrolysis of LTA4 to LTB4. The assay analyzes the amount of LTB4 produced.
LTA4 HTRF assay is a two-step assay involving enzymatic conversion of LTA4 to LTB4, and subsequent quantification of LTB4, product with HTRF assay.
The enzymatic conversion of LTA4 to LTB4 was performed in 384-well plates at ambient temperature in a reaction mixture containing 50 mM HEPES (pH 7.5), 0.5% BSA (fatty acid free), 18 nM recombinant human LTA4 hydrolase, 150 nM LTA4, 1% DMSO in the absence or presence of a compound of the invention. Reaction was stopped after 10 minutes incubation by diluting the incubation mixture 10-fold in 50 mM phosphate, 0.1% casein buffer (pH 7.0).
LTB4 formed was quantified with the HTRF assay in which free LTB4 competes with LTB4-XL665 conjugate (acceptor) for anti-LTB4 monoclonal antibody labeled with Europium cryptate (donor), thereby inhibiting the fluorescence energy transfer.
The LTB4 HTRF 384-well assay was carried out by incubating LTB4 samples or standards with LTB4-XL665 conjugate (7.5 ng/well) and anti-LTB4 monoclonal antibody-Europium cryptate conjugate (0.5 ng/well) in 50 mM phosphate, 0.4 M KF and 0.1% casein, buffer (pH 7.0) for two hours at ambient temperature. Plates were read in a RubyStar plate reader (BmG Labtechnologies Inc., NC) simultaneously at 620 nm and 665 nm to obtain signal ratios of 665 nm/620 nm. Results of energy transfer were expressed as delta F (%) which equaled [(signal ratio of sample-signal ratio of negative control)/(signal ratio of negative control)]×100%. Negative controls were control samples without LTB4 or LTB4-XL665.
Sample LTB4 concentrations were calculated from the LTB4 standard curve using the 4-parameter fit equation. For determination IC50 values for a particular compound of the invention, eight serially diluted compound concentrations (at 1:3.16 dilution) were used in this assay. Controls without a compound of the invention or with a reference compound were run parallel in the same assay plate.

[4] = read-out: inhibit peptidase activity, IC50 value
[5] = Homo sapiens, whole blood, read-out: inhibit production of LTB4 in whole blood, IC50 value
[6] = Table 1, human whole blood, read-out: Human Whole Blood IC50
[7] = read-out: inhibit LTA4 hydrolase activity, IC50 value
[8] = Table 1, read-out: Hydrolase IC50
[9] = Table 1, read-out: Peptidase IC50

Compound: COC(=O)CCC(=O)NCC(N)CCC(=O)Nc1ccc(Oc2ccccc2)cc1 (stereo in doubt) [Example 6, methyl 3-{[(2R)-2-amino-4-[(4-phenoxyphenyl)carbamoyl]butyl]carbamoyl}propanoate]
- IC50 [1, 4]: 215 nM
- IC50 [2, 5]: 252 nM
- IC50 [2, 6]: 252 nM

Compound: NC(CCC(=O)NCCN1CCCC1)C(=O)Nc1ccc(Oc2ccc(-n3cccc3)cc2)cc1 (stereo in doubt) [Example 7, (2R)-2-amino-N-{4-[4-(1H-pyrrol-1-yl)phenoxy]phenyl}-N′-[2-(pyrrolidin-1-yl)ethyl]pentanediamide]
- IC50 [3, 7]: 38 nM
- IC50 [1, 4]: 25 nM
- IC50 [2, 5]: 138 nM
- IC50 [2, 6]: 138 nM

Compound: N[C@@H](CCC(=O)Nc1ccc(OCc2ccccc2)cc1)C(=O)NCc1ccccc1 [(2S)-2-amino-N-benzyl-N′-[4-(benzyloxy)phenyl]pentanediamide]
- IC50 [3, 8]: 107 nM
- IC50 [1, 9]: 118 nM

Compound: CNC(=O)C(N)CCC(=O)Nc1ccc(OCc2ccccc2)cc1 (centres unmarked) [Example 1, 2-amino-N5-(4-(benzyloxy)phenyl)-N1-methylpentanediamide]
- IC50 [3, 7]: 27 nM
- IC50 [1, 4]: 24 nM
- IC50 [2, 5]: 117 nM
- IC50 [2, 6]: 117 nM

Compound: NC(=O)C(N)CCC(=O)Nc1ccc(Oc2ccccc2)cc1 (centres unmarked) [Example 2, 4-amino-N1-(4-phenoxyphenyl)pentanediamide]
- IC50 [3, 7]: 84 nM
- IC50 [1, 4]: 22 nM
- IC50 [2, 5]: 143 nM
- IC50 [2, 6]: 143 nM

Compound: NC(CCC(=O)Nc1ccc(Oc2ccccc2)cc1)C(=O)NCCCl (centres unmarked) [Example 3, 2-amino-N^1-(2-chloroethyl)-N^5-(4-phenoxyphenyl)pentanediamide]
- IC50 [3, 7]: 58 nM
- IC50 [1, 4]: 24 nM
- IC50 [2, 5]: 83 nM
- IC50 [2, 6]: 83 nM

Compound: COC(=O)[C@@H](N)CCC(=O)Nc1ccc(Oc2ccc(-n3cccc3)cc2)cc1 [Example 4, methyl N^5-(4-(4-(1H-pyrrol-1-yl)phenoxy)phenyl)glutaminate]
- IC50 [3, 7]: 17 nM
- IC50 [1, 4]: 21 nM
- IC50 [2, 5]: 55 nM
- IC50 [2, 6]: 55 nM

Compound: N[C@H](CCC(=O)Nc1ccc(Oc2ccc(-n3cccc3)cc2)cc1)C(=O)NCCc1cnc[nH]1 [Example 9, (2R)-2-amino-N-[2-(1H-imidazol-5-yl)ethyl]-N′-{4-[4-(1H-pyrrol-1-yl)phenoxy]phenyl}pentanediamide]
- IC50 [3, 7]: 10 nM
- IC50 [1, 4]: 53 nM
- IC50 [2, 5]: 664 nM
- IC50 [2, 6]: 664 nM

Compound: CCOC(=O)CCNC(=O)[C@H](N)CCC(=O)Nc1ccc(Oc2ccccc2)cc1 [Example 10, ethyl 3-[(2R)-2-amino-4-[(4-phenoxyphenyl)carbamoyl]butanamido]propanoate]
- IC50 [3, 7]: 73 nM
- IC50 [1, 4]: 40 nM

Compound: COC(=O)[C@@H](N)CCC(=O)Nc1ccc(OCC(O)c2ccccc2)cc1 (stereo partly drawn) [Example 11, methyl (2S)-2-amino-4-{[4-(2-hydroxy-2-phenylethoxy)phenyl]carbamoyl}butanoate]
- IC50 [1, 4]: 21 nM
- IC50 [2, 5]: 113 nM
- IC50 [2, 6]: 113 nM

Compound: COC(=O)[C@@H](N)CCC(=O)Nc1ccc(Nc2ccccc2)cc1 [Example 12, methyl (2S)-2-amino-4-{[4-(phenylamino)phenyl]carbamoyl}butanoate]
- IC50 [1, 4]: 213 nM
- IC50 [2, 5]: 184 nM
- IC50 [2, 6]: 184 nM

Compound: COC(=O)[C@@H](N)CCC(=O)Nc1ccc(OCC(=O)c2ccccc2)cc1 [methyl N5-(4-(2-oxo-2-phenylethoxy)phenyl)glutaminate]
- IC50 [3, 8]: 67 nM
- IC50 [1, 9]: 31 nM
- IC50 [2, 6]: 61 nM

Compound: CC(C)(C)OC(=O)[C@@H](N)CCC(=O)Nc1ccc(CCC(=O)c2ccccc2)cc1 [tert-butyl N5-(4-(3-oxo-3-phenylpropyl)phenyl)glutaminate]
- IC50 [1, 9]: 146 nM
- IC50 [2, 6]: 41 nM

Compound: (2S)-2-amino-N-[2-(pyridin-2-yl)ethyl]-N′-{4-[4-(1H-pyrrol-1-yl)phenoxy]phenyl}pentanediamide [Example 8]
- IC50 [1, 4]: 32 nM
- IC50 ([2]; whole blood, read-out: inhibit production of LTB4 in whole blood, IC50 value): 264 nM
